Source: patent publication US9868717B2, “Tricyclic sulphonamide compounds and methods of making and using same” (Zafgen, Inc., priority 2012, dated 2018)

Molecular target: T1, Human recombinant MetAP2 (Homo sapiens, UniProt P50579)
T1 construct: made in house; host or cells: Sf9 insect cells
Test: inhibition of recombinant human MetAP2 activity (MAS substrate, amino acid oxidase/Amplex red fluorescence)
Type: biochemical
Details: manganese enzyme, 30 minutes at 25° C., pH 7.5, 0.75 mM MAS substrate, 1% DMSO
Procedure: Compounds are tested for their capacity to inhibit recombinant human MetAP2 activity using the following assay.
Human recombinant MetAP2 expressed in Sf9 cells followed by affinity purification and EDTA treatment to remove endogenous active site cation was dialysed against MnCl2 to produce the manganese enzyme used in the assay. The assay was carried out for 30 minutes at 25° C. in 50 mM HEPES buffer containing 100 mM NaCl, pH 7.5 the presence of 0.75 mM Methionine-Alanine-Serine (MAS) substrate and 50 μg/ml amino acid oxidase using a dilution of purified MetAP2 giving >3-fold signal:noise. Cleavage of the substrate by MetAP2 and oxidation of free methionine by amino acid oxidase was detected and quantified using fluorescence generated by Amplex red (10-acetyl-3,7-dihydroxyphenoxazine) in combination with horseradish peroxidase which detects H2O2 released during the oxidation step. The fluorescent signal was detected using a multiwell fluorimeter. Compounds were diluted in DMSO prior to addition to assay buffer, the final DMSO concentration in the assay being 1%.
The IC50 is defined as the concentration at which a given compound achieves 50% inhibition of control. IC50 values are calculated using the XLfit software package (version 2.0.5).

T1 sequence (P50579 whole entry): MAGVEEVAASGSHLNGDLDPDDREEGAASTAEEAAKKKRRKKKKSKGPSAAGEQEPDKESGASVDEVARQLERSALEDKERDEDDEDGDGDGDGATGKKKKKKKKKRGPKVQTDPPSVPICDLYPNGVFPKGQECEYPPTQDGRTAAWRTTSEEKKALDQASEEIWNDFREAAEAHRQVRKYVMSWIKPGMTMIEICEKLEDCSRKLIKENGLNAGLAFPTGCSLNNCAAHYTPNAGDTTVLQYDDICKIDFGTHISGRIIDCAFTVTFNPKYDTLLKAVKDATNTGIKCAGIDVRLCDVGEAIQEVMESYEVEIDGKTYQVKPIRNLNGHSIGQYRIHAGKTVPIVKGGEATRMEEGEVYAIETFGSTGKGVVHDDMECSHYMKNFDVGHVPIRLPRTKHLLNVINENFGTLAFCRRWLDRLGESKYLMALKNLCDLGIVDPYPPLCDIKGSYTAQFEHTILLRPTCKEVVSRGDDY

Row | Structure (SMILES) | IC50 [nM]
1 | CCN1[C@@H]2CC[C@H]1C[C@@H](Cc1cc(F)ccc1S(=O)(=O)Nc1ccc3c(c1C(=O)O)OC[C@@H]1C[C@H]31)C2 (single isomer, unassigned) [Example 18] | < 50
2 | O=C(O)c1c(NS(=O)(=O)c2ccc(F)cc2C[C@@H]2CCN(CCO)C2)ccc2c1OC[C@@H]1C[C@H]21 [Example 17, (1aR,7bS)-5-{4-Fluoro-2-[(R)-1-(2-hydroxyethyl)pyrrolidin-3-ylmethyl]-benzenesulfonylamino}-1,1a,2,7b-tetrahydrocyclopropa[c]chromene-4-carboxylic acid] | < 50
3 | CCN(CC)CC1CC1c1cc(F)ccc1S(=O)(=O)Nc1ccc2c(c1C(=O)O)OC[C@@H]1C[C@H]21 (stereo partly drawn) [Example 1, (1aR,7bS)-5-[2-(2-Diethylaminomethylcyclopropyl)-4-fluorobenzenesulfonyl-amino]-1,1a,2,7b-tetrahydrocyclopropa[c]chromene-4-carboxylic acid] | 50 to 500
4 | O=C(O)c1c(NS(=O)(=O)c2ccc(F)cc2/C=C\CN2CC[C@@H](CO)C2)ccc2c1OC[C@@H]1C[C@H]21 [Example 26, (1aR,7bS)-5-{4-Fluoro-2-[(Z)-3-((R)-3-hydroxymethylpyrrolidin-1-yl)prop-1-enyl]benzenesulfonylamino}-1,1a,2,7b-tetrahydrocyclopropa[c]chromene-4-carboxylic acid] | < 50
5 | O=C(O)c1c(NS(=O)(=O)c2ccc(F)cc2C[C@@H]2CCNC2)ccc2c1OC[C@@H]1C[C@H]21 [Example 6, (1aR,7bS)-5-[4-Fluoro-2-((R)-pyrrolidin-3-ylmethyl)benzenesulfonylamino]-1,1a,2,7b-tetrahydrocyclopropa[c]chromene-4-carboxylic acid] | < 50
6 | O=C(O)c1c(NS(=O)(=O)c2ccc(F)cc2/C=C\CN2CC[C@H](CO)C2)ccc2c1OC[C@@H]1C[C@H]21 [Example 25, (1aR,7bS)-5-{4-Fluoro-2-[(Z)-3-((S)-3-hydroxymethylpyrrolidin-1-yl)prop-1-enyl]benzenesulfonylamino}-1,1a,2,7b-tetrahydrocyclopropa[c]chromene-4-carboxylic acid] | < 50
7 | CCN1CCCC(Cc2cc(F)ccc2S(=O)(=O)Nc2ccc3c(c2C(=O)O)OCC2CC32)C1 (single isomer, unassigned) [Example 14] | < 50
8 | CC(C)(O)[C@@H]1CCN(C/C=C\c2cc(F)ccc2S(=O)(=O)Nc2ccc3c(c2C(=O)O)OC[C@@H]2C[C@H]32)C1 [Example 28, (1aR,7bS)-5-(4-Fluoro-2-{(Z)-3-[(R)-3-(2-hydroxypropan-2-yl)pyrrolidin-1-yl]prop-1-enyl}benzenesulfonylamino)-1,1a,2,7b-tetrahydrocyclopropa[c]chromene-4-carboxylic acid] | < 50
9 | CCN1CC[C@H](C(=O)NCc2cc(F)ccc2S(=O)(=O)Nc2ccc3c(c2C(=O)O)OC[C@@H]2C[C@H]32)C1 [Example 32, (1aR,7bS)-5-{2-[((S)-1-ethylpyrrolidine-3-carbonyl)aminomethyl]-4-fluoro-benzenesulfonylamino}-1,1a,2,7b-tetrahydrocyclopropa[c]chromene-4-carboxylic acid-formic acid (1:1)] | < 50
10 | CCN1CC2C(C1)C2c1cc(F)ccc1S(=O)(=O)Nc1ccc2c(c1C(=O)O)OC[C@@H]1C[C@H]21 (stereo partly drawn) [Example 23, (1aR,7bS)-5-[2-(3-Ethyl-3-azabicyclo[3.1.0]hex-6-yl)-4-fluorobenzene-sulfonylamino]-1,1a,2,7b-tetrahydrocyclopropa[c]chromene-4-carboxylic acid] | 50 to 500
11 | CCN1CCC/C(=C/c2cc(F)ccc2S(=O)(=O)Nc2ccc3c(c2C(=O)O)OC[C@@H]2C[C@H]32)C1 (single isomer, unassigned) [Example 13] | 50 to 500
12 | CCN1CCC[C@@H]1CCc1cc(F)ccc1S(=O)(=O)Nc1ccc2c(c1C(=O)O)OC[C@@H]1C[C@H]21 [Example 16, (1aR,7bS)-5-{2-[2-((S)-1-Ethylpyrrolidin-2-yl)ethyl]-4-fluorobenzene-sulfonylamino}-1,1a,2,7b-tetrahydrocyclopropa[c]chromene-4-carboxylic acid] | < 50
13 | O=C(O)c1c(NS(=O)(=O)c2ccc(F)cc2/C=C2\CN3CCC2CC3)ccc2c1OC[C@@H]1C[C@H]21 (single isomer, unassigned) [Example 10] | < 50
14 | CC(C)(O)[C@H]1CCN(C/C=C\c2cc(F)ccc2S(=O)(=O)Nc2ccc3c(c2C(=O)O)OC[C@@H]2C[C@H]32)C1 [Example 27, (1aR,7bS)-5-(4-Fluoro-2-{(Z)-3-[(S)-3-(2-hydroxypropan-2-yl)pyrrolidin-1-yl]prop-1-enyl}benzenesulfonylamino)-1,1a,2,7b-tetrahydrocyclopropa[c]chromene-4-carboxylic acid] | < 50
15 | O=C(O)c1c(NS(=O)(=O)c2ccc(F)cc2C[C@H]2CCNC2)ccc2c1OC[C@@H]1C[C@H]21 [Example 7, (1aR,7bS)-5-[4-Fluoro-2-((S)-pyrrolidin-3-ylmethyl)benzenesulfonylamino]-1,1a,2,7b-tetrahydrocyclopropa[c]chromene-4-carboxylic acid] | < 50
16 | CCN1[C@@H]2CC[C@H]1C[C@H](Cc1cc(F)ccc1S(=O)(=O)Nc1ccc3c(c1C(=O)O)OC[C@@H]1C[C@H]31)C2 (single isomer, unassigned) [Example 19] | < 50
17 | O=C(O)c1c(NS(=O)(=O)c2ccc(F)cc2CC2CN3CCC2CC3)ccc2c1OC[C@@H]1C[C@H]21 (stereo partly drawn) [Example 9, (1aR,7bS)-5-[2-(1-Azabicyclo[2.2.2]oct-3-ylmethyl)-4-fluorobenzenesulfonyl-amino]-1,1a,2,7b-tetrahydrocyclopropa[c]chromene-4-carboxylic acid] | < 50
18 | O=C(O)c1c(NS(=O)(=O)c2ccc(F)cc2CC2CC3CCCN3C2)ccc2c1OC[C@@H]1C[C@H]21 (stereo partly drawn) [Example 29, (1aR,7bS)-5-[4-Fluoro-2-(hexahydro-1H-pyrrolizin-2-ylmethyl)benzene-sulfonylamino]-1,1a,2,7b-tetrahydrocyclopropa[c]chromene-4-carboxylic acid] | < 50
19 | CC1(O)CCN(C/C=C\c2cc(F)ccc2S(=O)(=O)Nc2ccc3c(c2C(=O)O)OC[C@@H]2C[C@H]32)C1 (stereo partly drawn) [Example 20, (1aR,7bS)-5-{4-Fluoro-2-[(Z)-3-(3-hydroxy-3-methylpyrrolidin-1-yl)prop-1-enyl]benzenesulfonylamino}-1,1a,2,7b-tetrahydrocyclopropa[c]chromene-4-carboxylic acid] | < 50
20 | CCN(CC)CC(C)(C)Cc1cc(F)ccc1S(=O)(=O)Nc1ccc2c(c1C(=O)O)OC[C@@H]1C[C@H]21 [Example 5, (1aR,7bS)-5-[2-(3-Diethylamino-2,2-dimethylpropyl)-4-fluorobenzenesulfonyl-amino]-1,1a,2,7b-tetrahydrocyclopropa[c]chromene-4-carboxylic acid] | < 50
21 | O=C(O)c1c(NS(=O)(=O)c2ccc(F)cc2/C=C2/CN3CCC2CC3)ccc2c1OC[C@@H]1C[C@H]21 (single isomer, unassigned) [Example 11] | < 50

Same assay, conditions: manganese enzyme, 30 minutes at 25° C., pH 7.5, 0.75 mM MAS substrate, 1% DMSO; listed as Second eluting enantiomer of (1aR,7bS)-5-[2-(2-diethylamino-methylcyclopropyl)-4

Row | Structure (SMILES) | IC50 [nM]
22 | CCN(CC)CC1CC1c1cc(F)ccc1S(=O)(=O)Nc1ccc2c(c1C(=O)O)OC[C@@H]1C[C@H]21 (stereo partly shown) [Example 3] | 50 to 500
